These results are taken from patent US8709719B2, “ZNF217 a new prognostic and predictive biomarker of recurrent invasive and metastatic phenotypes in breast cancer” (Centre Leon Berard, priority 2009, dated 2014).

The test system of one experiment is MVLN cells. The experiment in a line: Cell proliferation assay (BrdU) in MVLN cells. The format is cell-based. Particulars: 200 nM OH-Tam. As for the experimental part:
(§1) FIG. 13: Endocrine resistance is reversed in the presence of an siRNA-ZNF217 in OH-Tam-resistant CL6.7 cells. Total protein extracts from cell lines were analyzed by Western blotting with an anti-ZNF217. Expression of α-tubulin was used as an invariant control. (A) Western-blot analysis of ZNF217 in transfected MVLN and CL6.7 cells with either scrambled RNA or with an siRNA-ZNF217. (B) Cell proliferation (BrdU test) of transfected MVLN and CL6.7 cells with either scrambled RNA or siRNA-ZNF217, in the presence or the absence of 200 nM OH-Tam. This assay was performed in steroid-free medium. P-value (Student's t-test) was considered as significant when P<0.05.
(§2) MCF7 and MDA-MB-231 breast cancer cells were purchased from ATCC and grown according to recommendations in DMEM medium supplemented with 10% fetal bovine serum (Invitrogen, Cergy Pontoise, Paris). S30 cells and their MDA-MB-231 control cells have been previously described (Levenson et al., 2003). The cellular model of endocrine resistance (MVLN and CL6.7 cells) have been previously established and described (Demirpence et al., 1993).
(§3) Proliferating cells were analyzed using the Cell Proliferation ELISA, BrdU (colorimetric) Kit (Roche, Meylan, France). […]

Another experiment concerns CL6.7 cells. As to the kind of experiment: Cell proliferation assay (BrdU) in OH-Tam-resistant CL6.7 cells. The settings on record: 200 nM OH-Tam. The format is cell-based. On the procedure: as §1, §2, §3

`CC/C(=C(\c1ccc(O)cc1)c1ccc(OCCN(C)C)cc1)c1ccccc1` [OH-Tam, OH-Tamoxifen]: the “effect of OH-Tam exposure on cell proliferation” value in the experiment on MVLN cells (MVLN cells (OH-Tam-sensitive), steroid-free medium) was “cytostatic activity”; in the experiment on CL6.7 cells (CL6.7 cells (OH-Tam-resistant), steroid-free medium), “strong stimulation of CL6.7 cell proliferation”. Also, the “sensitivity to endocrine therapy (cell proliferation)” value in the experiment with MVLN cells (MVLN cells, OH-Tam exposure combined with ZNF217 knockdown (siRNA), P=0.001) was “increased sensitivity to endocrine therapy”. Moreover, the “inhibition of cell proliferation” value in the experiment with CL6.7 cells (CL6.7 cells, OH-Tam exposure combined with ZNF217 knocking-out (siRNA), P<10^-5) came to 35%.
